Measurements reported in ChEMBL document CHEMBL1275597, “In vitro activity of the aminoglycoside antibiotic arbekacin against Acinetobacter baumannii-calcoaceticus isolated from war-wounded patients at Walter Reed Army Medical Center” (Antimicrob Agents Chemother, 2010).
In brackets after ≈: the same amount, converted by molar mass. Activity calls are given as the source filed them. The calls are words filed in the database; no cut-off is given here.

Columns and labels:
[1] = system: Acinetobacter calcoaceticus/baumannii complex; experiment: (§1) Antimicrobial activity against Acinetobacter baumannii-calcoaceticus obtained from war-wounded patient assessed as susceptible isolates; format: functional
[2] = as §1; format: functional, Acinetobacter calcoaceticus/baumannii complex
[3] = Antimicrobial activity against Acinetobacter baumannii-calcoaceticus obtained from war-wounded patient assessed as susceptible isolates in presence of beta-lactamase inhibitor Sulbactam; format: functional, Acinetobacter calcoaceticus/baumannii complex
[4] = Antimicrobial activity against Acinetobacter baumannii-calcoaceticus obtained from war-wounded patient; format: functional; conditions: Acinetobacter calcoaceticus/baumannii complex
[5] = Antimicrobial activity against Acinetobacter baumannii-calcoaceticus obtained from war-wounded patient assessed as zone of inhibition at 128 ug/ml by disk diffusion method; format: functional; conditions: Acinetobacter calcoaceticus/baumannii complex; read-out: IZ
[6] = Cmax in war-wounded patient infected with Acinetobacter baumannii-calcoacetius at 2 to 3 mg/kg/day; format: ADME, organism-based; conditions: human, in vivo
[7] = Antimicrobial activity against Acinetobacter baumannii-calcoaceticus […] in presence of imipenem; format: functional, Acinetobacter calcoaceticus/baumannii complex
[8] = Antimicrobial activity against Acinetobacter baumannii-calcoaceticus […] in presence of meropenem; format: functional, Acinetobacter calcoaceticus/baumannii complex
[9] = system: Acinetobacter calcoaceticus/baumannii complex; experiment: Antimicrobial activity against Acinetobacter baumannii-calcoaceticus obtained from war-wounded patient assessed as susceptible isolates by tube dilution assay; format: functional
[10] = system: Homo sapiens; experiment: Cmax in war-wounded patient infected with Acinetobacter baumannii-calcoacetius at 5 to 7 mg/kg/day; format: ADME, organism-based; conditions: in vivo

| Compound | Activity [2] [%] | further results |
| --- | --- | --- |
| COc1c(N2C[C@@H]3CCCN[C@@H]3C2)c(F)cc2c(=O)c(C(=O)O)cn(C3CC3)c12 |  | Activity [1]: inactive |
| NCC[C@H](O)C(=O)N[C@@H]1C[C@H](N)[C@@H](O[C@H]2O[C@H](CN)[C@@H](O)[C@H](O)[C@H]2O)[C@H](O)[C@H]1O[C@H]1O[C@H](CO)[C@@H](O)[C@H](N)[C@H]1O [AMIKACIN] | 59 |  |
| CC1(C)S[C@@H]2[C@H](NC(=O)[C@H](N)c3ccccc3)C(=O)N2[C@H]1C(=O)O [AMPICILLIN] |  | Activity [3]: 67.3% |
| NCC[C@H](O)C(=O)N[C@@H]1C[C@H](N)[C@@H](O[C@H]2O[C@H](CN)CC[C@H]2N)[C@H](O)[C@H]1O[C@H]1O[C@H](CO)[C@@H](O)[C@H](N)[C@H]1O [ARBEKACIN] | 86.5 | MIC [4]: 2 µg/mL (≈ 3.62 µM); zone of inhibition at 128 µg/mL [5]: 13 mm; Cmax [6]: 20000 ng/mL |
| CO/N=C(\C(=O)N[C@@H]1C(=O)N2C(C(=O)[O-])=C(C[N+]3(C)CCCC3)CS[C@H]12)c1csc(N)n1 [CEFEPIME] | 32.7 |  |
| CC(C)(O/N=C(\C(=O)N[C@@H]1C(=O)N2C(C(=O)[O-])=C(C[n+]3ccccc3)CS[C@H]12)c1csc(N)n1)C(=O)O [CEFTAZIDIME] | 25 |  |
| O=C(O)c1cn(C2CC2)c2cc(N3CCNCC3)c(F)cc2c1=O [CIPROFLOXACIN] | 14.5 |  |
| COc1c(N2CCNC(C)C2)c(F)cc2c(=O)c(C(=O)O)cn(C3CC3)c12 (stereo not drawn) [GATIFLOXACIN] | 27 |  |
| C[C@@H](O)[C@H]1C(=O)N2C(C(=O)O)=C(SCCNC=N)C[C@H]12 [IMIPENEM ANHYDROUS] | 55 | fractional inhibitory concentration index (FICI) [7]: 0.375 |
| C[C@H]1COc2c(N3CCN(C)CC3)c(F)cc3c(=O)c(C(=O)O)cn1c23.C[C@H]1COc2c(N3CCN(C)CC3)c(F)cc3c(=O)c(C(=O)O)cn1c23.O [LEVOFLOXACIN] | 20.5 |  |
| C[C@@H](O)[C@H]1C(=O)N2C(C(=O)O)=C(S[C@@H]3CN[C@H](C(=O)N(C)C)C3)[C@H](C)[C@H]12 [MEROPENEM] | 53.7 | fractional inhibitory concentration index (FICI) [8]: 0.5 |
| CN(C)c1ccc(O)c2c1C[C@H]1C[C@H]3[C@H](N(C)C)C(O)=C(C(N)=O)C(=O)[C@@]3(O)C(O)=C1C2=O [MINOCYCLINE] | 92.6 |  |
| CCN1CCN(C(=O)N[C@@H](C(=O)N[C@@H]2C(=O)N3[C@@H]2SC(C)(C)[C@@H]3C(=O)O)c2ccccc2)C(=O)C1=O [PIPERACILLIN] | 9.8 |  |
| NC[C@H]1O[C@H](O[C@H]2[C@H](O)[C@@H](O[C@H]3O[C@H](CO)[C@@H](O)[C@H](N)[C@H]3O)[C@H](N)C[C@@H]2N)[C@H](N)C[C@@H]1O [TOBRAMYCIN] | 56 |  |
| COLISTIN |  | Activity [9]: 100% |
| GENTAMICIN [listing 1 of 2 here] |  | Cmax [10]: < 4000 ng/mL |
| GENTAMICIN [listing 2 of 2 here] |  | Activity [1]: 14.5% |
| POLYMYXIN B |  | Activity [9]: 100% |
